Laboratory results from PubChem BioAssay (NCI).
“And” between values parts separate entries of the source, which are not always exact repeats. Identical values can stand only once.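 Compound exposure: 48 hours, 5 concentrations, 96-well plates. Abbreviation: GI50, concentration required for 50% inhibition of growth. TGI: total growth inhibition.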

Assays:
Test in all cases: NCI-60 cell line screen, 48 h
[1] = system: RXF 393 renal
[2] = system: HCT-116 colon
[3] = system: SNB-75 CNS
[4] = system: OVCAR-3 ovarian
[5] = system: NCI/ADR-RES ovarian
[6] = system: NCI-H522 lung
[7] = system: HT29 colon
[8] = system: SK-OV-3 ovarian
[9] = system: HOP-92 NSCLC
[10] = system: K-562 leukemia

SMILES	GI50 [1]	TGI [1] [µM]	GI50 [2] [µM]	TGI [2] [µM]	GI50 [3] [µM]	TGI [3]	GI50 [4] [µM]	TGI [4]	GI50 [5] [µM]	TGI [5]	GI50 [6] [µM]	TGI [6] [µM]	GI50 [7] [µM]	TGI [7]	GI50 [8] [µM]	TGI [8]	GI50 [9]	TGI [9]	GI50 [10]	TGI [10]
COc1ccc2[nH]c(-c3ccccc3)c(C=C(C#N)C#N)c2c1	9.82 µM	> 100	4.37	> 100	2.76	21.2 µM	3.08	16 µM	2.79	14 µM	4.57	> 100	3.13	> 100 µM	4.82	35.8 µM	2.4 µM	36.4 µM	2.07 µM	> 100 µM
CCOC(=O)/C(=C/c1ccccc1)C(=O)c1ccccc1	2.04 µM	3.92	2.04	4.39	2.95	14.5 µM	8.14	20.4 µM	3.6	70 µM	2.14	4.5	2.78	5.8 µM	14.4	27.9 µM	3.92 µM	21.8 µM		
O=[N+]([O-])c1cccc(/C=C/c2ccccn2)c1	8.6 µM	> 100	7.02	> 100	5.47	75.4 µM	12.4	> 100 µM	22.9	> 100 µM					33.6	> 100 µM	24.3 µM	> 100 µM	41.2 µM	> 100 µM
COc1cc([N+](=O)[O-])c(S(=O)(=O)O)cc1N				> 100		> 100 µM		> 100 µM		> 100 µM		> 100		> 100 µM		> 100 µM				> 100 µM
CCN1CCC2(CC1)NC(=O)c1c(c3ccc(Cl)c(Cl)c3n1C)C2C#N (configuration not stated)	1.24 µM	4.13	2.49	4.29	1.75	4.64 µM			3.6	13.6 µM	5.81	21.7	1.92	4.11 µM	6.99	22.2 µM	> 100 µM	> 100 µM	2.19 µM	6.21 µM
CSC1=Nc2c(c(C)c(-c3ccccc3)n2CCCCl)C2=NC(=O)CN12	11.3 µM	29.8	3.19	47.7	2.83	11.6 µM	8.28	36.2 µM	4.29	> 100 µM	3.86	19.2	3.85	19.5 µM			11.5 µM	37 µM	5.77 µM	> 100 µM
COc1cc(-c2cc(-c3nc4cc(Cl)c(Cl)cc4[nH]3)[nH]n2)cc(OC)c1OC	3.17 µM	13.5	2.78	10.3	3.12	14.2 µM	4.05	15.4 µM	3.25	> 100 µM	2.02	5.66	3.42	12.5 µM	17.3	53 µM			3.3 µM	24.9 µM
COc1ccc2c(c1)C(=O)c1c-2c(OCCN(C)C)nc2cc(OC)ccc12	1.54 µM	4.52	0.344	1.41	1.99	9.02 µM	1.59	4.06 µM	0.695	4.2 µM	0.75	2.66	0.333	1.37 µM			1.65 µM	7.02 µM	1.06 µM	2.82 µM
C=CCC(N[C@@H](CO)c1ccccc1)c1ccccn1 (some centres not stated)	> 100 µM	> 100	> 100	> 100	> 100	> 100 µM	> 100	> 100 µM	> 100	> 100 µM	25.8	> 100	> 100	> 100 µM	> 100	> 100 µM			34 µM	> 100 µM
O=C1OCC2=C1C(c1cccc(C(F)(F)F)c1)c1cc3c(cc1N2CCO)OCO3 (configuration not stated)			0.408	> 50			1.32	> 50 µM	1.34	> 50 µM	0.573	2.16	1.31	8.4 µM	2.37	> 50 µM	2.03 µM	> 50 µM	0.273 µM	> 50 µM
COc1ccc(OC)c(/C=C/C(=O)C(C)(C)C)c1		34.3		31.8		56.8 µM		49.5 µM				30.4		64.1 µM		90.4 µM		44.1 µM		55.8 µM
CCCCCCCCCCCCC/C=C1\C[C@H](O)COC1=O		42.6		31.2		30.7 µM		31.7 µM				33.5		30.6 µM		35.1 µM		24.7 µM		33.1 µM
COc1cc(OC)cc(-c2ccc(-c3ccc(C(=N)N)s3)s2)c1	1.25 µM	2.99	0.318	1.22	1.22	2.5 µM	1.81	3.76 µM	1.75	3.58 µM	1.77	3.55					0.883 µM and 0.528 µM	2.39 µM and 2.1 µM	0.346 µM and 0.178 µM	1.11 µM and 0.441 µM
CCOc1ccccc1NC(=O)C(=O)C(C(=O)c1ccc2ccccc2c1)C1OC(=O)c2ccccc21 (configuration not stated)		9.05		22.3		31 µM		52 µM				27.4		76.4 µM		52.8 µM		38.1 µM		> 100 µM
O=S(=O)(CC#CCCCOCC#Cc1ccccc1C#CCS(=O)(=O)c1ccccc1)c1ccccc1			16.2	29.7			11.6	30 µM	20.6	44.1 µM	14.6	33			> 100	> 100 µM			15.9 µM	39.6 µM
O=C1NC2(CCCC2)/C(=N\O)C12CCCC2		> 100		> 100		> 100 µM		> 100 µM				> 100		> 100 µM		> 100 µM		> 100 µM		> 100 µM
COC1=C(C)C(=O)C2=C(C1=O)C(CO)N1C(C#N)C3CC4C(C1C2N1CCOC41)N3C (configuration not stated)	0.00201 µM and 0.0178 µM				0.0669	0.141 µM and 0.226 µM and 0.338 µM		0.168 µM and 0.0383 µM and < 0.02 µM		0.45 µM and 0.182 µM				0.423 µM and 0.0773 µM		1.32 µM and 2.7 µM and 1.7 µM	0.0014 µM		0.00627 µM and < 0.01 µM	0.547 µM and 0.0682 µM and 0.123 µM
